Where a name gives a salt, the structure may show the parent alone.

Chain of Btk enzyme (His-Btk) (Q06187 whole entry): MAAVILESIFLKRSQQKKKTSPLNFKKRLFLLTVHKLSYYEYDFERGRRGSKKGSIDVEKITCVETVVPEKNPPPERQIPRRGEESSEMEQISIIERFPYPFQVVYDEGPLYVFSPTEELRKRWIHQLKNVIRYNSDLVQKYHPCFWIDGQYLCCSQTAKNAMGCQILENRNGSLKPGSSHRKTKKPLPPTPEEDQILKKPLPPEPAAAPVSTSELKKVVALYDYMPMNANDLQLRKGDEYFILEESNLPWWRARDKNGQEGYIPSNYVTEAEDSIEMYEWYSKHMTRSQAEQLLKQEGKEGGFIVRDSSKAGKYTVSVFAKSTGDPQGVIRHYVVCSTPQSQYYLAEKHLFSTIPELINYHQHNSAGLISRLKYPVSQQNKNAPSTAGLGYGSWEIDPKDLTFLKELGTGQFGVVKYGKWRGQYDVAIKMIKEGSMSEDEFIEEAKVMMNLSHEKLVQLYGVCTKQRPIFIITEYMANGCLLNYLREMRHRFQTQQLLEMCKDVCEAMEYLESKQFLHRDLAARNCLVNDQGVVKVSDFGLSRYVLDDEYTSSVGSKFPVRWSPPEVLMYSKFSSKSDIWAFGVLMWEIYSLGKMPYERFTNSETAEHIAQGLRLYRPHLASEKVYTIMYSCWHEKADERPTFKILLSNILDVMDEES

One experiment concerns the target Btk enzyme (His-Btk) (Homo sapiens (Human), UniProt Q06187). In words: Btk enzyme activity, IMAP fluorescence polarization assay (Assay Method A).
Details: not given
In turn, `CN(C)C1(C(=O)N2CCC[C@@H](c3nc(-c4ccc(C(=O)Nc5cc(C(F)(F)F)ccn5)cc4)c4c(N)nccn34)C2)CC1` [Example 88, (R)-4-(8-amino-3-(1-(1-(dimethylamino)cyclopropane-carbonyl)piperidin-3 yl)imidazo[1,5-a]pyrazin-1-yl)-N-(4-(trifluoromethyl)pyridin-2-yl)benzamide] returned an EC50 of 0.01 to 0.1 µM.

Compound `CC1(C(=O)N2CCC[C@@H](c3nc(-c4ccc(C(=O)Nc5cc(C(F)(F)F)ccn5)cc4)c4c(N)ncc(C5CC5)n34)C2)COC1` [Example 303, (R)-4-(8-amino-5-cyclopropyl-3-(1-(3-methyloxetane-3-carbonyl)piperidin-3-yl)imidazo[1,5-a]pyrazin-1-yl)-N-(4-(trifluoromethyl)pyridin-2-yl)benzamide] came in with an EC50 of 0.01 to 0.1 µM.

Take `COCCC(=O)N1CCC[C@@H](c2nc(-c3ccc(C(=O)Nc4ccccn4)c(F)c3)c3c(N)nccn23)C1` [Example 282, (R)-4-(8-amino-3-(1-(3-methoxypropanoyl)piperidin-3-yl)imidazo[1,5-a]pyrazin-1-yl)-2-fluoro-N-(pyridin-2-yl)benzamide, TFA salt]: the EC50 was below 0.01 µM.

For the compound `COCCC(=O)N1CCC[C@@H](c2nc(-c3ccc(C(=O)Nc4ccccn4)nc3)c3c(N)nccn23)C1` [Example 287, (R)-5-(8-amino-3-(1-(3-methoxypropanoyl)piperidin-3-yl)imidazo[1,5-a]pyrazin-1-yl)-N-(pyridin-2-yl)picolinamide, TFA salt], the concentration for a half-maximal effect (EC50) lay in the range of 0.01 to 0.1 µM.

In the case of `CCN(CC)c1nc(-c2ccc(C(=O)Nc3ccccn3)cc2)c2c(N)nccn12` [Example 213, 4-(8-amino-3-(diethylamino)imidazo[1,5-a]pyrazin-1-yl)-N-(pyridin-2-yl)benzamide], the EC50 is 0.1 to 1 µM.

In turn, `COCCC(=O)N1CCC[C@@H](c2nc(-c3ccc(C(=O)Nc4ccccn4)cn3)c3c(N)nccn23)C1` [Example 288, (R)-6-(8-amino-3-(1-(3-methoxypropanoyl)piperidin-3-yl)imidazo[1,5-a]pyrazin-1-yl)-N-(pyridin-2-yl) nicotinamide] yielded an EC50 of 0.1 to 1 µM.

The same experiment, now with this note: read-out: EC50 Btk activity values - Assay Method A; IMAP-FP, 60 min pre-incubation, 5 μM ATP; class 100-1000 is given as ≧100 nM-<1 μM.
On to `Cc1cnc(N)c2c(-c3ccc(C(=O)Nc4cc(C(F)(F)F)ccn4)cc3)nc([C@@H]3CCCN(C(=O)C4(C)COC4)C3)n12` [Example 306, (R)-4-(8-amino-5-methyl-3-(1-(3-methyloxetane-3-carbonyl)piperidin-3-yl)imidazo[1,5-a]pyrazin-1-yl)-N-(4-(trifluoromethyl)pyridin-2-yl)benzamide], for which the half-maximal effective concentration (EC50) was below 0.01 µM.

On to `CC(C)C(=O)N[C@@H]1CCC[C@@H](c2nc(-c3ccc(C(=O)Nc4cc(C(F)(F)F)ccn4)cc3)c3c(N)nccn23)C1` (relative stereo) [Example 167, 4-(8-amino-3-((trans)-3-isobutyramidocyclohexyl)imidazo [1,5-a]pyrazin-1-yl)-N-(4-(trifluoromethyl)pyridin-2-yl)benzamide], for which the concentration for a half-maximal effect (EC50) is below 0.01 µM.

In the case of `Nc1nccn2c([C@@H]3CCCN(Cc4ccncc4)C3)nc(-c3ccc(C(=O)Nc4cc(C(F)(F)F)ccn4)cc3)c12` [Example 141, (R)-4-(8-amino-3-(1-(pyridin-4-ylmethyl)piperidin-3-yl)imidazo[1,5-a]pyrazin-1-yl)-N-(4-(trifluoromethyl)pyridin-2-yl)benzamide, TFA salt], the EC50 was below 0.01 µM.

With `CC1(C(=O)N2CCC[C@@H](c3nc(-c4ccc(C(=O)Nc5cc(C(F)(F)F)ccn5)cc4)c4c(N)ncc(/C=C/c5ccccc5)n34)C2)COC1` [Example 309, (R,E)-4-(8-amino-3-(1-(3-methyloxetane-3-carbonyl)piperidin-3-yl)-5-styrylimidazo[1,5-a]pyrazin-1-yl)-N-(4-(trifluoromethyl)pyridin-2-yl)benzamide], the EC50 is below 0.01 µM.

Consider `CSCCC(=O)N1CCC[C@@H](n2nc(-c3ccc(C(=O)Nc4cc(C(F)(F)F)ccn4)cc3)c3c(N)ncnc32)C1` [Example 276, (R)-4-(4-amino-1-(1-(3-(methylthio)propanoyl)piperidin-3-yl)-1H-pyrazolo[3,4-d]pyrimidin-3-yl)-N-(4-(trifluoromethyl)pyridin-2-yl)benzamide], for which the EC50 was below 0.01 µM.

(Values after patent US9718828B2 (MERCK SHARP & DOHME CORP., priority 2011, dated 2017).)
